Experimental data reported in PMC10882719 (Frontiers in Neuroscience, 2024).
Read-outs that look alike come from different tables or passages of the source.

Assays:
Type in all cases: cell-based
168 GPCRs [1] = molecular target: T1, 168 GPCRs (Homo sapiens, UniProt P32302)
T1 construct: host or cells: PathHunter cell lines
T1 sequence (P32302 1-372): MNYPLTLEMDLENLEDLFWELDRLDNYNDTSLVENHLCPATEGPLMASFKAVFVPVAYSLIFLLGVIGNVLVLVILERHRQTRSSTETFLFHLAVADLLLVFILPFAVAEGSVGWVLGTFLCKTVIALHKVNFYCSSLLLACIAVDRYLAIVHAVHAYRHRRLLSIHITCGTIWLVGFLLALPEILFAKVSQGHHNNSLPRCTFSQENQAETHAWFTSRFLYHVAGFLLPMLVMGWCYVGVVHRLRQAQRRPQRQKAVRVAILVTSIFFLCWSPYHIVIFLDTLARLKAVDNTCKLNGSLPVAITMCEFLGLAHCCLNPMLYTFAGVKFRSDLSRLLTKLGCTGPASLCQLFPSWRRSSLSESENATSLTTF

168 GPCRs [2] = molecular target: T2, 168 GPCRs (Homo sapiens, UniProt P21917)
T2 construct: host or cells: PathHunter cell lines
T2 sequence (P21917 1-419): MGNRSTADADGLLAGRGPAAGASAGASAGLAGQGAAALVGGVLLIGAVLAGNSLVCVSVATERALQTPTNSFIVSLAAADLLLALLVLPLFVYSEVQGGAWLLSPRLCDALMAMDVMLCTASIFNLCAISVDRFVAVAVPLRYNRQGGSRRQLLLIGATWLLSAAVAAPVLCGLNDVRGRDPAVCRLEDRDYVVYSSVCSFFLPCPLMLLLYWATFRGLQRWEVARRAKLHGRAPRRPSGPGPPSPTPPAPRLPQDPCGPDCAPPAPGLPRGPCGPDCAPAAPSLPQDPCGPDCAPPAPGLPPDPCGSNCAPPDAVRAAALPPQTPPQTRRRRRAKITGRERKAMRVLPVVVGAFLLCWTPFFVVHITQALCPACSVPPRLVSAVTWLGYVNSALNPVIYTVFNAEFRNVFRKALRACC

168 GPCRs [3] = molecular target: T3, 168 GPCRs (Homo sapiens, UniProt Q9NSD7); conditions: RXFP3
T3 construct: host or cells: PathHunter cell lines
T3 sequence (Q9NSD7 1-469): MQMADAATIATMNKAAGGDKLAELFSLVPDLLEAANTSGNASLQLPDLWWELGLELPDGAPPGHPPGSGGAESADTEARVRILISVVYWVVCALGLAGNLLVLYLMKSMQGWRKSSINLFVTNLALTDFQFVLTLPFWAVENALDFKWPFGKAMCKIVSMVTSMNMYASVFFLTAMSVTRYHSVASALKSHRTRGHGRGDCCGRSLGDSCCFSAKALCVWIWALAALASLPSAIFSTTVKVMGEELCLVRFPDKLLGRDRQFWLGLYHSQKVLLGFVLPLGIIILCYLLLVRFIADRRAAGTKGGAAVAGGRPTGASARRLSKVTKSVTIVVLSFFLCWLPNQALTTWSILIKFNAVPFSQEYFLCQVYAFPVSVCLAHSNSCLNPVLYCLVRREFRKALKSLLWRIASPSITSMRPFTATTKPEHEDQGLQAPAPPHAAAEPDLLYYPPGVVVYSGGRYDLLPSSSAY

168 GPCRs [4] = molecular target: T4, 168 GPCRs (Homo sapiens, UniProt P47900); conditions: P2RY1
T4 construct: host or cells: PathHunter cell lines
T4 sequence (P47900 whole entry): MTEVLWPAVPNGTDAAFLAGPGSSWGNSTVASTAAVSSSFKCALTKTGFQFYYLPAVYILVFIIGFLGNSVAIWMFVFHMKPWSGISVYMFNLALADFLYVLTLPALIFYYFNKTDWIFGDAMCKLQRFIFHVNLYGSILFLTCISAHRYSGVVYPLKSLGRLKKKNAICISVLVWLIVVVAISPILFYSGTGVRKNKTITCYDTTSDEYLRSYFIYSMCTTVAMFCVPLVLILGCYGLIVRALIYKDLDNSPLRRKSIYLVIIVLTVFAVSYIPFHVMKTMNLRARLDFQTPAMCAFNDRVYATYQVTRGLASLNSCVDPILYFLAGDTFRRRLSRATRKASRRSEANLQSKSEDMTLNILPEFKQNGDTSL

168 GPCRs [5] = molecular target: T5, 168 GPCRs (Homo sapiens, UniProt P41586)
T5 construct: host or cells: PathHunter cell lines
T5 sequence (P41586 21-468): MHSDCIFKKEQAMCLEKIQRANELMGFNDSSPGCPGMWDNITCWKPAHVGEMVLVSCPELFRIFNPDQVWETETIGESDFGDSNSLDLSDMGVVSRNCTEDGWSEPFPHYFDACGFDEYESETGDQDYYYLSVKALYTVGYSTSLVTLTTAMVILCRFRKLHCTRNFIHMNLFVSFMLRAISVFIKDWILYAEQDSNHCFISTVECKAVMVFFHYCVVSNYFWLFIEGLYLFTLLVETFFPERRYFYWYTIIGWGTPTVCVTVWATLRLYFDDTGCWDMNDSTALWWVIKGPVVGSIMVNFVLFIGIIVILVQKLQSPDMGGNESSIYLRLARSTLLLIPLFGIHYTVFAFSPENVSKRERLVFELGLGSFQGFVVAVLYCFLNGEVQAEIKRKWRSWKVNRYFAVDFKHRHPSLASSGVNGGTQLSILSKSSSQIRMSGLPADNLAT

168 GPCRs [6] = molecular target: T6, 168 GPCRs (Homo sapiens, UniProt P41597)
T6 construct: host or cells: PathHunter cell lines
T6 sequence (P41597 whole entry): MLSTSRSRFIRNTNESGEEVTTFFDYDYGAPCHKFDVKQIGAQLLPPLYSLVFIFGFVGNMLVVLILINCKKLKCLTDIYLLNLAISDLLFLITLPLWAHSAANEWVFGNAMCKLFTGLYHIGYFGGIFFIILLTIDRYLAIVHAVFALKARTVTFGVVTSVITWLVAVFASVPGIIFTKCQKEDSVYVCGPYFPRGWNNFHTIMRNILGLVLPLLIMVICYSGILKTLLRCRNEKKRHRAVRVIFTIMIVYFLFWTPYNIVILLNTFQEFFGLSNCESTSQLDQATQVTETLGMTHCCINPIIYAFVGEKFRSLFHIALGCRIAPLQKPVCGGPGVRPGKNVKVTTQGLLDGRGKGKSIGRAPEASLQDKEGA

168 GPCRs [7] = molecular target: T7, 168 GPCRs (Homo sapiens, UniProt P47872); conditions: SCTR
T7 construct: host or cells: PathHunter cell lines
T7 sequence (P47872 23-440): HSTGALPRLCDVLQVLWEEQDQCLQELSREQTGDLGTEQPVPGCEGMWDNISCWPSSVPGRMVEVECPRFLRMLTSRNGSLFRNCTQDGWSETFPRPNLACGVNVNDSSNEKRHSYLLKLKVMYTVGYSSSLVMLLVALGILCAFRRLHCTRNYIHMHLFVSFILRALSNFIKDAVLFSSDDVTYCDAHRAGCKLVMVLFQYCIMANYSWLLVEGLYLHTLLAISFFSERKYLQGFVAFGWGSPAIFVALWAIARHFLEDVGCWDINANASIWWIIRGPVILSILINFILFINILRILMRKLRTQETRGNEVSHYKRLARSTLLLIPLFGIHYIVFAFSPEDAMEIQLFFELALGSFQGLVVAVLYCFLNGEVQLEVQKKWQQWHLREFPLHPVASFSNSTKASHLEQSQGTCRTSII

Compound | % Agonist Activity (168 GPCRs [1]; CXCR5, 1 uM) | % Antagonist Activity (168 GPCRs [1]; CXCR5, 1 uM) | % Agonist Activity (168 GPCRs [1]; CXCR5, 10 uM) | % Antagonist Activity (168 GPCRs [1]; CXCR5, 10 uM) | % Agonist Activity (168 GPCRs [2]; DRD4, 1 uM) | % Antagonist Activity (168 GPCRs [2]; DRD4, 1 uM) | % Agonist Activity (168 GPCRs [2]; DRD4, 10 uM) | % Antagonist Activity (168 GPCRs [2]; DRD4, 10 uM) | % Agonist Activity (168 GPCRs [3]; Conc 1 uM) | % Antagonist Activity (168 GPCRs [3]; Conc 1 uM) | % Agonist Activity (168 GPCRs [3]; Conc 10 uM) | % Antagonist Activity (168 GPCRs [3]; Conc 10 uM) | % Agonist Activity (168 GPCRs [4]; Conc 1 uM) | % Antagonist Activity (168 GPCRs [4]; Conc 1 uM) | % Agonist Activity (168 GPCRs [4]; Conc 10 uM) | % Antagonist Activity (168 GPCRs [4]; Conc 10 uM) | % Agonist Activity (168 GPCRs [5]; ADCYAP1R1, 1 uM) | % Antagonist Activity (168 GPCRs [5]; ADCYAP1R1, 1 uM) | % Agonist Activity (168 GPCRs [5]; ADCYAP1R1, 10 uM) | % Antagonist Activity (168 GPCRs [5]; ADCYAP1R1, 10 uM) | further results
CNC(C)C(=O)c1ccc2c(c1)OCO2 (centres unmarked) [methylone] | 2.5% | -4.3% | 1.4% | -15.1% | -8% | 8.4% | -9.4% | 12.2% | -7.6% | 23.1% | -8.7% | 32.6% | 2.2% | 14.5% | -4.1% | 14.9% | -4% | 13.6% | -3% | 12.5% | % Agonist Activity (168 GPCRs [6]; CCR2, 1 uM): -0.4%; % Antagonist Activity (168 GPCRs [6]; CCR2, 1 uM): 2%; % Agonist Activity (168 GPCRs [6]; CCR2, 10 uM): -0.5%; % Antagonist Activity (168 GPCRs [6]; CCR2, 10 uM): 4.9%; % Agonist Activity (168 GPCRs [7]; Conc 1 uM): -2.6%; % Antagonist Activity (168 GPCRs [7]; Conc 1 uM): 5.3%; % Agonist Activity (168 GPCRs [7]; Conc 10 uM): -1.4%; % Antagonist Activity (168 GPCRs [7]; Conc 10 uM): 2.5%
CNC(C)Cc1ccc2c(c1)OCO2 (centres unmarked) [MDMA, 3,4-Methylenedioxy methamphetamine, reference compound] | 2.7% | -4.4% | 1.4% | 3.2% | -0.7% | 14.9% | -0.1% | 7.7% | -5.2% | 15.3% | -0.7% | 19.1% | 0.3% | 2.8% | -0.8% | 1.2% | -0.3% | -0.9% | -0.8% | -0.1% | % Agonist Activity (168 GPCRs [6]; CCR2, 1 uM): 0.5%; % Antagonist Activity (168 GPCRs [6]; CCR2, 1 uM): 9.2%; % Agonist Activity (168 GPCRs [6]; CCR2, 10 uM): 0.7%; % Antagonist Activity (168 GPCRs [6]; CCR2, 10 uM): 11.1%; % Agonist Activity (168 GPCRs [7]; Conc 1 uM): 0.1%; % Antagonist Activity (168 GPCRs [7]; Conc 1 uM): -3.8%; % Agonist Activity (168 GPCRs [7]; Conc 10 uM): -1.9%; % Antagonist Activity (168 GPCRs [7]; Conc 10 uM): 7.4%
